Data set [1] can be described thus: In vivo pharmacokinetics study, intra-tracheal administration, plasma treprostinil by LC-MS/MS. Also noted: species or system Sprague-Dawley rats. The following applies: rat, FIGS. 1A and 1B. As to the method: In this in vivo PK study, Sprague-Dawley rats (purchased from BioLASCO Taiwan Co., Ltd.) were anaesthetized with isoflurane, and positioned securely on its back to an arched platform in a dorsal position at a 45° to 50° plane using a ribbon hooked around upper incisors. A microspray aerosol tip (Microsprayer, PennCentury, Philadelphia, USA) was inserted to the tracheal bifurcation of each rat, and a test sample (i.e., compositions in Table 2 or free treprostinil solution) was administered intra-tracheally to each rat at a given dose using a high-pressure syringe that is attached to the microspray aerosol device. […] The blood sample was then centrifuged at approximately 2500×g for 15 min and at 4±2° C. within 1 hour of collection, so as to separate the plasma from the blood cells. Approximately 0.1 mL of the obtained plasma sample from each rat was added into a new storage tube and stored in a freezer with a temperature maintained at −70±2° C. […] The obtained supernatant (150 μL) was mixed with an equal volume of H2O and analyzed by liquid chromatography-tandem mass spectrometry (LC-MS/MS) to determine the treprostinil concentration in the plasma sample of the rat. […]

The subject of the next data set is Sprague Dawley rats. The data set can be described thus: Safety evaluation of inhaled composition: cage-side observation of upper airway irritation. Format: in vivo. The following applies: nebulized, nose-only inhalation, 6 μg/kg/day for 10 days; frequency of clinical signs in 10 inhalations; n = 3. As for the experimental part:
In this study, 8 male Sprague Dawley rats (purchased from BioLASCO Taiwan Co., Ltd.) were divided into 3 groups: control group (n=2), comparative group (n=3) and experimental group (n=3). The experimental group rats and the comparative group rats were placed in restraining tubes and given nebulized treprostinil liposomal composition LB11500 from Example 2 and free treprostinil solution, respectively, at a dosage of 6 μg/kg/day for 10 days, via a 20-port nose-only Buxco inhalation exposure system (DSI, USA). An air flow carried aerosol generated by mesh vibrating nebulizer was provided to the system tower where the rats are encased in, at a rate of 10 L/min. The control group rats received no exposure to the drug.
During the study, cage-side clinical observation was performed on each rat by a single observer to record incidences of upper airway irritation due to the inhaled nebulized treprostinil liposomal composition or free treprostinil solution. Manifestations of upper airway irritation include tension, sneezing, erythematous pinnae, tremor, hunched posture, piloerection, tachypnea and labored breathing, hyperpnea and epistaxis.

Structures are written as SMILES.

As for `CCCCC[C@H](O)CC[C@@H]1[C@H]2Cc3cccc(OCC(=O)O)c3C[C@H]2C[C@H]1O` [free treprostinil, treprostinil], the “time at which plasma treprostinil concentration peaked” value in data set [1] is at most 5 min. For the same compound, the “Incidences of upper airway irritation” value with Sprague Dawley rats amounted to 17.

The values are drawn from US11833125B2, “Pharmaceutical composition for controlled release of treprostinil” (Pharmosa Biopharm Inc., priority 2018, dated 2023).
